This assay concerns modified version of the GPR119 receptor (94% identity to human receptor). The experiment in a line: cAMP production assay (LANCE cAMP kit, TR-FRET) in HEK-293 cells. The assay is classed as cell-based. Conditions: for cAMP production in HEK-293 cells: HEK-293 cells stably expressing modified GPR119, test compounds 0.2 nM to 10 μM, one-hour incubation; for Fold over baseline: increase in cAMP relative to basal levels, agonist activity if 1.5-fold or greater. The procedure, abridged: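 Doxycycline-induced HEK-293 cells expressing modified GPR119 exposed to compounds (0.2 nM to 10 μM, 0.5% DMSO) for one hour at ambient temperature in HBSS with HEPES and BSA. cAMP measured by TR-FRET competition and interpolated from a standard curve; agonism defined as ≥1.5-fold over basal.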

From US20140256756A1, “PIPERIDINYL-SUBSTITUTED LACTAMS AS GPR119 MODULATORS” (Array BioPharma Inc., priority 2011, published 2014) come the findings set out here.

For `CC(C)c1nsc(N2CCC(N3CCC(Oc4ccc(C#N)cc4F)C3=O)CC2)n1` (centres unmarked) [Example 63, 3-Fluoro-4-(1-(1-(3-isopropyl-1,2,4-thiadiazol-5-yl)piperidin-4-yl)-2-oxopyrrolidin-3-yloxy)benzonitrile], the “cAMP production in HEK-293 cells” value amounted to 7.4 nmol and the Fold over baseline was found to be 2.7.
In the case of `Cc1cc(O[C@H]2CCN(C3CCN(c4nc(C(C)C)ns4)CC3)C2=O)c(F)cc1C#N` [Example 64, (S)-5-fluoro-4-(1-(1-(3-isopropyl-1,2,4-thiadiazol-5-yl)piperidin-4-yl)-2-oxopyrrolidin-3-yloxy)-2-methylbenzonitrile], the “cAMP production in HEK-293 cells” value is 30.8 nmol and the Fold over baseline stood at 3.5.
`CC(C)c1nsc(N2CCC(N3CCC(Oc4ccc(S(C)(=O)=O)cc4)C3=O)CC2)n1` (centres unmarked) [Example 65, -(1-(3-Isopropyl-1,2,4-thiadiazol-5-yl)piperidin-4-yl)-3-(4-(methylsulfonyl)phenoxy)pyrrolidin-2-one]: the “cAMP production in HEK-293 cells” value came out at 22.1 nmol and the Fold over baseline came out at 4.1.
For `CCS(=O)(=O)c1ccc(OC2CCN(C3CCN(c4nc(C)ns4)CC3)C2=O)c(F)c1` (centres unmarked) [Example 66, 3-(4-(ethylsulfonyl)-2-fluorophenoxy)-1-(1-(3-methyl-1,2,4-thiadiazol-5-yl)piperidin-4-yl)pyrrolidin-2-one], the “cAMP production in HEK-293 cells” value was 8.6 nmol and the Fold over baseline turned out to be 1.8.
As to `CCS(=O)(=O)c1ccc(OC2CCN(C3CCN(c4nc(-c5ccccc5)ns4)CC3)C2=O)c(F)c1` (centres unmarked) [Example 67, 3-(4-(ethylsulfonyl)-2-fluorophenoxy)-1-(1-(3-phenyl-1,2,4-thiadiazol-5-yl)piperidin-4-yl)pyrrolidin-2-one], the “cAMP production in HEK-293 cells” value was 14.0 nmol and the Fold over baseline was determined as 2.3.
As to `CCS(=O)(=O)c1ccc(OC2CCN(C3CCN(c4nc(CC(C)C)ns4)CC3)C2=O)c(F)c1` (centres unmarked) [Example 68, 3-(4-(ethylsulfonyl)-2-fluorophenoxy)-1-(1-(3-isobutyl-1,2,4-thiadiazol-5-yl)piperidin-4-yl)pyrrolidin-2-one], the “cAMP production in HEK-293 cells” value turned out to be 14.5 nmol and the Fold over baseline is reported as 3.1.
For `CS(=O)(=O)c1ccc(O[C@H]2CCN(C3CCN(c4nc(Br)ns4)CC3)C2=O)c(F)c1` [Example 69, (S)-1-(1-(3-bromo-1,2,4-thiadiazol-5-yl)piperidin-4-yl)-3-(2-fluoro-4-(methylsulfonyl)phenoxy)pyrrolidin-2-one], the “cAMP production in HEK-293 cells” value worked out at 10.6 nmol and the Fold over baseline was determined as 2.1.
Regarding `CS(=O)(=O)c1ccc(O[C@H]2CCN(C3CCN(c4nc(-c5cnco5)ns4)CC3)C2=O)c(F)c1` [Example 70, (S)-3-(2-fluoro-4-(methylsulfonyl)phenoxy)-1-(1-(3-(oxazol-5-yl)-1,2,4-thiadiazol-5-yl)piperidin-4-yl)pyrrolidin-2-one], the “cAMP production in HEK-293 cells” value is 11.4 nmol and the Fold over baseline was determined as 3.1.
As for `Cc1ncccc1-c1nsc(N2CCC(N3CC[C@H](Oc4ccc(S(C)(=O)=O)cc4F)C3=O)CC2)n1` [Example 71, (S)-3-(2-fluoro-4-(methylsulfonyl)phenoxy)-1-(1-(3-(2-methylpyridin-3-yl)-1,2,4-thiadiazol-5-yl)piperidin-4-yl)pyrrolidin-2-one], the “cAMP production in HEK-293 cells” value amounted to 5.9 nmol and the Fold over baseline amounted to 2.1.
`Cn1nccc1-c1nsc(N2CCC(N3CC[C@H](Oc4ccc(S(C)(=O)=O)cc4F)C3=O)CC2)n1` [Example 72, (S)-3-(2-fluoro-4-(methylsulfonyl)phenoxy)-1-(1-(3-(1-methyl-1H-pyrazol-5-yl)-1,2,4-thiadiazol-5-yl)piperidin-4-yl)pyrrolidin-2-one]: the “cAMP production in HEK-293 cells” value is 10.6 nmol and the Fold over baseline is recorded as 2.9.
For the compound `Cn1cc(-c2nsc(N3CCC(N4CC[C@H](Oc5ccc(S(C)(=O)=O)cc5F)C4=O)CC3)n2)cn1` [Example 73, (S)-3-(2-fluoro-4-(methylsulfonyl)phenoxy)-1-(1-(3-(1-methyl-1H-pyrazol-4-yl)-1,2,4-thiadiazol-5-yl)piperidin-4-yl)pyrrolidin-2-one], the “cAMP production in HEK-293 cells” value worked out at 6.2 nmol and the Fold over baseline is reported as 2.2.
With `CS(=O)(=O)c1ccc(O[C@H]2CCN(C3CCN(c4nc(Oc5ccccc5)ns4)CC3)C2=O)c(F)c1` [Example 74, (S)-3-(2-fluoro-4-(methylsulfonyl)phenoxy)-1-(1-(3-phenoxy-1,2,4-thiadiazol-5-yl)piperidin-4-yl)pyrrolidin-2-one], the “cAMP production in HEK-293 cells” value is 15.3 nmol and the Fold over baseline is on record as 4.2.
On the same counts, the results for `Cc1nn(C)c(Oc2nsc(N3CCC(N4CC[C@H](Oc5ccc(S(C)(=O)=O)cc5F)C4=O)CC3)n2)c1C` [Example 75, (S)-3-(2-fluoro-4-(methylsulfonyl)phenoxy)-1-(1-(3-(1,3,4-trimethyl-1H-pyrazol-5-yloxy)-1,2,4-thiadiazol-5-yl)piperidin-4-yl)pyrrolidin-2-one] are 6.9 nmol and 2.7.
Regarding `Cc1ncccc1Oc1nsc(N2CCC(N3CC[C@H](Oc4ccc(S(C)(=O)=O)cc4F)C3=O)CC2)n1` [Example 76, (S)-3-(2-fluoro-4-(methylsulfonyl)phenoxy)-1-(1-(3-(2-methylpyridin-3-yloxy)-1,2,4-thiadiazol-5-yl)piperidin-4-yl)pyrrolidin-2-one], the “cAMP production in HEK-293 cells” value amounted to 5.7 nmol and the Fold over baseline is on record as 2.5.
In the case of `CC(C)c1nsc(N2CCC(N3CCC(Oc4ccc(C(=O)NCCO)cc4F)C3=O)CC2)n1.Cl` (centres unmarked) [Example 77, 3-Fluoro-N-(2-hydroxyethyl)-4-(1-(1-(3-isopropyl-1,2,4-thiadiazol-5-yl)piperidin-4-yl)-2-oxopyrrolidin-3-yloxy)benzamide hydrochloride], the “cAMP production in HEK-293 cells” value was determined as 15.1 nmol and the Fold over baseline was 2.8.
In the same order, the values of `CC(C)c1nsc(N2CCC(N3CCC(Oc4ccc(C(=O)N(C)CCN(C)C)cc4F)C3=O)CC2)n1` (centres unmarked) [Example 78, N-(2-(dimethylamino)ethyl)-3-fluoro-4-(1-(1-(3-isopropyl-1,2,4-thiadiazol-5-yl)piperidin-4-yl)-2-oxopyrrolidin-3-yloxy)-N-methylbenzamide] are 5.0 nmol and 1.6.
As to `CC(C)c1nsc(N2CCC(N3CCC(Oc4ccc(C(=O)N(C)CCO)cc4F)C3=O)CC2)n1` (centres unmarked) [Example 79, 3-fluoro-N-(2-hydroxyethyl)-4-(1-(1-(3 isopropyl-1,2,4-thiadiazol-5-yl)piperidin-4-yl)-2-oxopyrrolidin-3-yloxy)-N-methylbenzamide], the “cAMP production in HEK-293 cells” value amounted to 19.0 nmol and the Fold over baseline is 3.2.
On the same counts, the results for `CC(C)c1nsc(N2CCC(N3CCC(Oc4ccc(C(=O)N(C)CCN)cc4F)C3=O)CC2)n1` (centres unmarked) [Example 80, N-(2-aminoethyl)-3-fluoro-4-(1-(1-(3-isopropyl-1,2,4-thiadiazol-5-yl)piperidin-4-yl)-2-oxopyrrolidin-3-yloxy)-N-methylbenzamide] are 16.1 nmol and 2.8.
In the same order, the values of `CC(C)c1nsc(N2CCC(N3CCC(Oc4ccc(C(=O)NCCN(C)C)cc4F)C3=O)CC2)n1` (centres unmarked) [Example 81, N-(2-(dimethylamino)ethyl)-3 fluoro-4-(1-(1-(3-isopropyl-1,2,4-thiadiazol-5-yl)piperidin-4-yl)-2-oxopyrrolidin-3-yloxy)benzamide] are 11.7 nmol and 2.4.
In the same order, the values of `CC(C)c1nsc(N2CCC(N3CCC(Oc4ccc(-n5cnnn5)nc4)C3=O)CC2)n1` (centres unmarked) [Example 82, 3-(6-(1H-tetrazol-1-yl)pyridin-3-yloxy)-1-(1-(3-isopropyl-1,2,4-thiadiazol-5-yl)piperidin-4-yl)pyrrolidin-2-one] are 12.8 nmol and 2.4.
`CC(C)c1nsc(N2CCC(N3CCC(Oc4ccc(-c5nnn(C)n5)cc4)C3=O)CC2)n1` (centres unmarked) [Example 83, 1-(1-(3-isopropyl-1,2,4-thiadiazol-5-yl)piperidin-4-yl)-3-(4-(2-methyl-2H-tetrazol-5-yl)phenoxy)pyrrolidin-2-one]: the “cAMP production in HEK-293 cells” value turned out to be 14.9 nmol and the Fold over baseline is recorded as 2.5.
In the case of `CC(C)c1nsc(N2CCC(N3CCC(Oc4ccc(-n5cnnn5)cc4)C3=O)CC2)n1` (centres unmarked) [Example 84, 3-(4-(1H-tetrazol-1-yl)phenoxy)-1-(1-(3-isopropyl-1,2,4-thiadiazol-5-yl)piperidin-4-yl)pyrrolidin-2-one], the “cAMP production in HEK-293 cells” value was 18.8 nmol and the Fold over baseline turned out to be 4.2.
`CC(C)c1nsc(N2CCC(N3CCCC(Oc4cc(F)c(S(C)(=O)=O)cc4F)C3=O)CC2)n1` (centres unmarked) [Example 85, 3-(2,5-Difluoro-4-(methylsulfonyl)phenoxy)-1′-(3-isopropyl-1,2,4-thiadiazol-5-yl)-[1,4′-bipiperidin]-2-one]: the “cAMP production in HEK-293 cells” value was determined as 16.2 nmol and the Fold over baseline came out at 3.8.
Consider `CS(=O)(=O)c1ccc(O[C@H]2CCN(C3CCN(c4nc(C(F)(F)F)ns4)CC3)C2=O)c(F)c1` [Example 86, (S)-3-(2-Fluoro-4-(methylsulfonyl)phenoxy)-1-(1-(3-(trifluoromethyl)-1,2,4-thiadiazol-5-yl)piperidin-4-yl)pyrrolidin-2-one], for which the “cAMP production in HEK-293 cells” value was 11.1 nmol and the Fold over baseline was found to be 3.4.
Regarding `CS(=O)(=O)c1ccc(N[C@H]2CCCN(C3CCN(c4nc(C(F)(F)F)ns4)CC3)C2=O)c(F)c1` [Example 87, (S)-3-(2-fluoro-4-(methylsulfonyl)phenylamino)-1′-(3-(trifluoromethyl)-1,2,4-thiadiazol-5-yl)-[1,4′-bipiperidin]-2-one], the “cAMP production in HEK-293 cells” value stood at 13.6 nmol and the Fold over baseline turned out to be 2.1.
